This assay relates to male SD rats. In words: Anti-inflammatory action: carrageenin-induced sole swelling (plethysmometer). Format: in vivo. The conditions noted are these: 1 mg/kg in terms of Piroxicam, oral; for Swelling percent: 1 hour before carrageenin, mean, n=5. As to the method: As test animals, there were used male SD rats each weighing about 200 g. As a test sample, there was used a suspension of each of the anti-inflammatory agent compositions No. 1-4 obtained in Examples 1-4 above, in a gum arabic solution (the concentration of Piroxicam in the suspension was 1%). This test sample was orally administered to each rat in an amount of 1 mg/kg in terms of Piroxicam. One hour after the administration of the test sample, an inflammatory agent (0.1 ml of a physiological saline solution containing 1% of carrageenin) was subcutaneously injected to each rat at the sole. Then, the sole volume was measured with the lapse of time using a plethysmometer, and swelling percent was calculated from the following formula. Swelling percent (%) = [(Ps - Po)/Po] x 100 where Po = sole volume before injection of carrageenin Ps = sole volume at a certain time after the injection of carrageenin For comparison, Piroxicam alone was orally administered in an amount of 1 mg/kg, in the same manner as above, and the change of swelling percent with time was examined.

For `CN1C(C(=O)Nc2ccccn2)=C(O)c2ccccc2S1(=O)=O` [Piroxicam alone, Piroxicam], the Swelling percent was found to be 26.79% (0.5 hour after carrageenin injection); 39.51% (1 hour after carrageenin injection); 46.71% (1.5 hours after carrageenin injection); 45.72% (2 hours after carrageenin injection); 43.77% (3 hours after carrageenin injection); 44.33% (4 hours after carrageenin injection). The anti-inflammatory action entry (result in words, from Table 1) was “significant anti-inflammatory action”.

Source of the values: patent EP0361348A1, “Non-steroidal pharmaceutical composition and process for producing the same” (NIPPON HYPOX LABORATORIES INCORPORATED, priority 1988, dated 1990).
